Laboratory results reported in patent US7019109B2, “SSTR1-selective analogs” (The Salk Institute for Bilogical Studies, priority 2001, dated 2006).
Read-outs that look alike come from different tables or passages of the source. Where a SMILES comes first, the peptide text is derived from it. Bridges are numbered along the chain shown (N, C = ends). [ ]: non-standard residue; d: D form. The star is where a group is joined. NMePhe(4-CH2NHiPr) = CN[C@@H](Cc1ccc(CNC(C)C)cc1)C(=O)O; Tyr(Nα-carbamoyl) = NC(=O)N[C@@H](Cc1ccc(O)cc1)C(=O)*; Phe(4-CH2NHiPr) = CC(C)NCc1ccc(C[C@H](N)C(=O)O)cc1; d2Nal = N[C@H](Cc1ccc2ccccc2c1)C(=O)O; NMeS = CN[C@@H](CO)C(=O)O

Key:
Type in all cases: binding
[1] = target: T1, human SSTR4 (Homo sapiens, UniProt P31391); assay: Displacement of 125I-[Leu8,D-Trp22,Tyr25]-SRIF-28 from cloned SSTR4 (receptor autoradiography); details: read-out: IC50 (nM) mSSTR4
T1 construct: expressed in transfected cells; host or cells: CHO-K1 cells and CCL39 cells
Description: (§1) Generally, recombinant cells expressing the receptor are washed and homogenized to prepare a crude protein homogenate that is frozen, embedded and then cut in 10–20 μm thin sections, as known in this art. Candidate substances, such as potential SRIF agonists and antagonists, are incubated with the tissue sections, and the interaction between the candidate substance and the receptor polypeptide is monitored.
(§2) Receptor binding assays are performed on cloned SRIF receptors as generally set forth in Reubi, J. C. et al., J. Clin. Endocrinol. […] Med. 2000, 27, 273–282.
(§3) In vitro Bioassay: The various somatostatin analogs are tested in vitro for their ability to bind to isolated cloned receptors expressed on CHO-K1 cells and CCL39 cells. CHO-K1 cells are grown in Ham's F-12 medium, and CCL39 cells are grown in Dulbecco's modified Eagle's medium/Ham's F-12(1:1) mix, supplemented with 10% fetal bovine serum, 100 U/ml penicillin and 100 μg/ml streptomycin, in humidified air containing 5% CO2 at 37° C.
(§4) Cells are washed and prepared to produce homogenates as described in detail in Reubi, J. C. et al, Eur. J. Nucl. Med. 2000, 27, 273–282.
(§5) Receptor autoradiography is performed on 20 μm thick cryostat sections of the membrane pellets, mounted on microscope slides, and then stored at −20° C. […] Increasing concentrations of the unlabeled peptide are used ranging from 0.1–1000 nM. […] IC50 values are calculated after quantification of the data using a computer-assisted image processing system as known in this art.

[2] = target: T2, human SSTR3 (Homo sapiens, UniProt P32745); assay: Displacement of 125I-[Leu8,D-Trp22,Tyr25]-SRIF-28 from cloned SSTR3 (receptor autoradiography); details: read-out: IC50 (nM) mSSTR3
T2 construct: expressed in transfected cells; host or cells: CHO-K1 cells and CCL39 cells
Description: as §1, §2, §3, §4, §5

[3] = target: T3, human SSTR2 (Homo sapiens, UniProt P30874); assay: Displacement of 125I-[Leu8,D-Trp22,Tyr25]-SRIF-28 from cloned SSTR2 (receptor autoradiography); details: read-out: IC50 (nM) mSSTR2
T3 construct: expressed in transfected cells; host or cells: CHO-K1 cells and CCL39 cells
Description: as §1, §2, §3, §4
(§6) Receptor autoradiography is performed on 20 μm thick cryostat sections of the membrane pellets, mounted on microscope slides, and then stored at −20° C. […] […] […] IC50 values are calculated after quantification of the data using a computer-assisted image processing system as known in this art.

[4] = target: T4, human SSTR5 (Homo sapiens, UniProt P35346); assay: Displacement of 125I-[Leu8,D-Trp22,Tyr25]-SRIF-28 from cloned SSTR5 (receptor autoradiography); details: read-out: IC50 (nM) mSSTR5
T4 construct: expressed in transfected cells; host or cells: CHO-K1 cells and CCL39 cells
Description: as §1, §2, §3, §4, §6

[5] = target: T5, human SSTR1 (Homo sapiens, UniProt P30872); assay: Displacement of 125I-[Leu8,D-Trp22,Tyr25]-SRIF-28 from cloned SSTR1 (receptor autoradiography)
T5 construct: expressed in transfected cells; host or cells: CHO-K1 cells and CCL39 cells
Description: as §1, §2, §3, §4, §5

[6] = inhibition of radioligand binding of 125I-[Leu8,D-Trp22,Tyr24]SRIF-28, cloned receptor, table, read-out: IC50 (nM) mSSTR1

T1 sequence (P31391 whole entry): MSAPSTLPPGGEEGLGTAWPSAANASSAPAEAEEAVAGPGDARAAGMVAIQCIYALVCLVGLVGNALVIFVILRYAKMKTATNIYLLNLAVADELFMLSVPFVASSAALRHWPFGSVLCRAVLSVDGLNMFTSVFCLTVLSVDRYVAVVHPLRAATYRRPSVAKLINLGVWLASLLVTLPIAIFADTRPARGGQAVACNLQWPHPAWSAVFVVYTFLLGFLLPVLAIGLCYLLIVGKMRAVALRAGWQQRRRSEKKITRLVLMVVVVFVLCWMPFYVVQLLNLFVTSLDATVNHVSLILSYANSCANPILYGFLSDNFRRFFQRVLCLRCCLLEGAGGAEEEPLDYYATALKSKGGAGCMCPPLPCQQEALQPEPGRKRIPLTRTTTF
T5 sequence (P30872 whole entry): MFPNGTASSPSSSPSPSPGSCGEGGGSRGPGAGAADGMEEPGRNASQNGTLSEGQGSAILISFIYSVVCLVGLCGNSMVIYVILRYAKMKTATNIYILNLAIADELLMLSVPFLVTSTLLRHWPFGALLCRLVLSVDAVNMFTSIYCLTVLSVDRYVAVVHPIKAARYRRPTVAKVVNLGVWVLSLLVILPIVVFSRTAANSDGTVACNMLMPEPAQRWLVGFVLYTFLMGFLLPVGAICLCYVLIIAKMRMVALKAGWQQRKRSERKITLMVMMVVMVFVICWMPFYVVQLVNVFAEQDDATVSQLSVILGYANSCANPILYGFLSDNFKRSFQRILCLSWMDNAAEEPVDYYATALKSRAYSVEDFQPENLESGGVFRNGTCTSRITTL
T3 sequence (P30874 whole entry): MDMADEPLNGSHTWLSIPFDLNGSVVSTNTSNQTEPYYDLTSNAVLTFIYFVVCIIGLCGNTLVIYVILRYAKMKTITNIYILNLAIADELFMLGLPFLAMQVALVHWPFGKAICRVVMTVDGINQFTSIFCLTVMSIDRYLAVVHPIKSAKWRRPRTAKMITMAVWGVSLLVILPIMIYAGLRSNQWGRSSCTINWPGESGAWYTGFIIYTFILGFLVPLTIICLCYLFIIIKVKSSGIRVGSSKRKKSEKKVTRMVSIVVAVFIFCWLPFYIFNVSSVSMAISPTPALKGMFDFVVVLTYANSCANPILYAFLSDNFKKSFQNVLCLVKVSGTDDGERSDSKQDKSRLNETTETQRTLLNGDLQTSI
T4 sequence (P35346 whole entry): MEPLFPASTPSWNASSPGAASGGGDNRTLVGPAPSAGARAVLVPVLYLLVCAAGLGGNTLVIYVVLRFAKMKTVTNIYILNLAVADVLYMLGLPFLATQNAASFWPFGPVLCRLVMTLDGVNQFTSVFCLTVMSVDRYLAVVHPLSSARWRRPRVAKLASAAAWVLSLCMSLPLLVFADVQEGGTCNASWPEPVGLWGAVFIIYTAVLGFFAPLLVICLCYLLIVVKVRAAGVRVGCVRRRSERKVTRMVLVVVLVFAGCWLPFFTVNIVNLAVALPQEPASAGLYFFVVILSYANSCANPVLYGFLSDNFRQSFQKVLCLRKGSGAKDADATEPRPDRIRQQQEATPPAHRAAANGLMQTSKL
T2 sequence (P32745 whole entry): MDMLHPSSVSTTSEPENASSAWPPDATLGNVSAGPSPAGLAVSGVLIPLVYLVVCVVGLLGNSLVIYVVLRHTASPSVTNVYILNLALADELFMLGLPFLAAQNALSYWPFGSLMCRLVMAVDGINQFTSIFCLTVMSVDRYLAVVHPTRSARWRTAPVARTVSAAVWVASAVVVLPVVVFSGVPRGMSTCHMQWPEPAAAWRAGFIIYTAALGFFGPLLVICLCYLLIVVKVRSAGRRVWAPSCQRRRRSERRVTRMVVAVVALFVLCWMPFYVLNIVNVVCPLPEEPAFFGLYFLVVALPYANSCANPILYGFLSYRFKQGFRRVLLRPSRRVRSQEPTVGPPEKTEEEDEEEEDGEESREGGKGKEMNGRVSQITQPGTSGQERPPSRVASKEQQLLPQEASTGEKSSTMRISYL

Row | IC50 [1] | IC50 [2] | IC50 [3] | IC50 [4] | IC50 [5, 6] | IC50 ([5]; unit inferred, read-out: IC50 / binding affinity at SSTR1, unit inferred) | IC50 ([1]; inhibition of radioligand binding of 125I-[Leu8,D-Trp22,Tyr24]SRIF-28, cloned receptor, table) | IC50 ([5]; displacement of iodinated SRIF-28 radioligand, read-out: IC50 / binding affinity at human SSTR1) | SMILES
1 | > 1000 nM | 600 nM | > 10000 nM | > 1000 nM | 25 nM | – | – | – | CC(C)NCc1ccc(C[C@@H]2NC(=O)[C@@H](Cc3c[nH]c4ccccc34)NC(=O)[C@H](Cc3ccccc3)NC(=O)[C@H](Cc3ccccc3)NC(=O)[C@H](CCCCN)NC(=O)[C@@H](N)CSSC[C@@H](C(=O)O)NC(=O)[C@H](CO)N(C)C(=O)[C@H]([C@@H](C)O)NC(=O)[C@H](Cc3ccccc3)NC(=O)[C@H]([C@@H](C)O)NC2=O)cc1 [Peptide No. 22A, (cyclo)H-Cys-Lys-Phe-Phe-D-Trp-IAmp-Thr-Phe-Thr-N^αMeSer-Cys-OH] (H-CKFF[dW][Phe(4-CH2NHiPr)]TFT[NMeS]C-OH; disulfide 1-11)
2 | > 1000 nM | > 1000 nM | > 1000 nM | > 10000 nM | 43 nM | ~32.5 nM | – | – | CC(C)NCc1ccc(C[C@H]2C(=O)N[C@@H]([C@@H](C)O)C(=O)N[C@@H](Cc3ccccc3)C(=O)N[C@@H]([C@@H](C)O)C(=O)N[C@@H](CO)C(=O)N[C@H](C(=O)O)CSSC[C@H](N)C(=O)N[C@@H](CCCCN)C(=O)N[C@@H](Cc3ccccc3)C(=O)N[C@@H](Cc3ccccc3)C(=O)N[C@H](Cc3ccc4ccccc4c3)C(=O)N2C)cc1 [Peptide No. 15, (cyclo)H-Cys-Lys-Phe-Phe-D-2Nal-N^αMeIAmp-Thr-Phe-Thr-Ser-Cys-OH] (H-CKFF[d2Nal][NMePhe(4-CH2NHiPr)]TFTSC-OH; disulfide 1-11)
3 | – | > 1000 nM | > 10000 nM | > 1000 nM | 33 nM | – | 487 nM | – | CC(C)NCc1ccc(C[C@@H]2NC(=O)[C@@H](Cc3c[nH]c4ccccc34)NC(=O)[C@H](Cc3ccccc3)NC(=O)[C@H](Cc3ccccc3)NC(=O)[C@H](CCCCN)NC(=O)[C@H](NC(=O)[C@H](Cc3ccc(O)cc3)NC(N)=O)CSSC[C@@H](C(=O)O)NC(=O)[C@H](CO)NC(=O)[C@H]([C@@H](C)O)NC(=O)[C@H](Cc3ccccc3)NC(=O)[C@H]([C@@H](C)O)NC2=O)cc1 [Peptide No. 14C, (cyclo)CbmTyr-D-Cys-Lys-Phe-Phe-D-Trp-IAmp-Thr-Phe-Thr-Ser-Cys-OH] ({Tyr(Nα-carbamoyl)}-[dC]KFF[dW][Phe(4-CH2NHiPr)]TFTSC-OH; disulfide 1-11)
4 | 200 nM | 610 nM | > 10000 nM | > 10000 nM | 8.7 nM | – | – | ~8.7 nM | CC(C)NCc1ccc(C[C@H]2C(=O)N[C@@H]([C@@H](C)O)C(=O)N[C@@H](Cc3ccccc3)C(=O)N[C@@H]([C@@H](C)O)C(=O)N[C@@H](CO)C(=O)N[C@H](C(=O)O)CSSC[C@H](N)C(=O)N[C@@H](CCCCN)C(=O)N[C@@H](Cc3ccccc3)C(=O)N[C@@H](Cc3ccccc3)C(=O)N[C@H](Cc3c[nH]c4ccccc34)C(=O)N2C)cc1 [Peptide No. 13, (cyclo)H-Cys-Lys-Phe-Phe-D-Trp-N^αMeIAmp-Thr-Phe-Thr-Ser-Cys-OH] (H-CKFF[dW][NMePhe(4-CH2NHiPr)]TFTSC-OH; disulfide 1-11)
